# In patent US20130231305A1, “Method of Modulating Protein 14-3-3 Functionality By Facilitating or Inhibiting Phosphorylation” (Medvet Science Pty. Ltd., priority 2010, published 2013):
# Changes are numbered by the printed parent chain. Entries after “also recorded” stand apart in the source; their conditions may differ.
# Key:
# [1] = published, Contreras et al. 2006; cited from earlier work
# [2] = molecular target: T1, 14-3-3ζ (Homo sapiens, UniProt P63104); experiment: 14-3-3 phosphorylation by PKCδCat-HA immunoprecipitates; format: biochemical; details: recombinant 14-3-3ζ, FIG. 5B
# T1 construct: made in house
# T1 sequence (P63104 1-245): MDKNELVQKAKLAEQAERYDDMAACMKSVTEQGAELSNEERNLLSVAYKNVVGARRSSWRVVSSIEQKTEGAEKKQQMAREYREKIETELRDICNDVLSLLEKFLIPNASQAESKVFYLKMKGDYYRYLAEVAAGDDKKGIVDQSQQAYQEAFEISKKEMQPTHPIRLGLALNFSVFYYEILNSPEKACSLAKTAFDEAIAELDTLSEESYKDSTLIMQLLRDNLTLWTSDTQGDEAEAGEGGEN
# Description: FIG. 5 is an image depicting that DMS is required for phosphorylation of 14-3-3ζ by PKCδCat but not for activation of the kinase. COS cells were transfected with either an empty expression construct (Mock) or one encoding a HA-tagged truncated form of PKCδ corresponding to the caspase-3 cleaved protein (PKCδCat-HA). 20 hours after transfection the cells were lysed and PKCδCat-HA was immunoprecipitated using an anti-HA antibody. (A) PKC assays were carried out on the immunoprecipitates from mock (open bars) and PKCδCat-HA (shaded bars) expressing cells using Ser25 peptide as substrate with [^32P]γ-ATP in the presence or absence of 100 μM DMS (delivered in 0.1% ethanol) or 10 μM of GF109203X (GFX), the PKC inhibitor. The values represent means±S.E. of triplicate determinations. (B) PKCδCat-HA immunoprecipitates were incubated with recombinant 14-3-3ζ and [^32P]γ-ATP in the presence or absence of DMS or GF109203X (GFX). Phosphorylated 14-3-3 was detected by autoradiography after separation of SDS-PAGE (upper panel). The gel was also coomassie stained to show equal loading of 14-3-3 protein (lower panel).
# Equal amounts of PKCδCat-HA immunoprecipitate were used to assay for PKC kinase activity, or to phosphorylate recombinant 14-3-3. […] Following incubation, reactions were separated on 12.5% SDS-PAGE, coomassie stained and 14-3-3 phosphorylation analysed by autoradiography.
# [3] = molecular target: T2, 14-3-3ζ S58A mutant (Homo sapiens, UniProt P63104, S58A); experiment: Phosphorylation of S58A mutant 14-3-3ζ by PKA catalytic subunit; format: biochemical; details: 50 μM sphingosine; alanine substitution of Ser58
# T2 construct: made in house
# T2 sequence (P63104 1-245 S58A): T1 sequence (P63104 1-245) with S58A
# Description: FIG. 1 is an image depicting that sphingosine is required for 14-3-3ζ phosphorylation on Ser58 by the catalytic subunit of PKA. 14-3-3ζ (wild-type or S58A mutant) was incubated with the catalytic subunit of PKA in the presence (+) or absence (−) of 50 μM sphingosine (A) or DMS (B) delivered in 0.1% ethanol. Phosphorylated 14-3-3ζ was detected by autoradiography. Gels were coomassie stained to show equal loading of 14-3-3 substrate.
# (§1) Substrate 14-3-3 (either 0.5 μg of purified recombinant 14-3-3, a […] of fractions from gel filtration or immunoprecipitates from 14-3-3ζ-Myc transfected COS cells) were added to reaction mixture comprising 0.2 Units of the PKA catalytic subunit, in the presences or absence of sphingolipid (delivered in 0.1% v/v ethanol) in PICA reaction buffer (20 mM MOPS, pH 7.4, 20 mM β-glycerol phosphate, 4 mM EGTA, 1 mM Na3VO4, 60 mM MgCl2, 1 mM DTT, 500 μM ATP, 2.4 μCi [^32P]γ-ATP). Reactions were incubated at 37° C. for 15 minutes. After incubation, reactions were separated on 12.5% SDS-PAGE, coomassie stained and 14-3-3 phosphorylation analysed by autoradiography.
# [4] = tested on: 14-3-3 isoforms; experiment: Phosphorylation of recombinant 14-3-3 isoforms by PKA catalytic subunit; format: biochemical; details: 50 μM in 0.1% ethanol
# Description: FIG. 3 is an image depicting that sphingosine is required for the phosphorylation of multiple 14-3-3 isoforms in the third helix. (A) Primary sequence alignment of 14-3-3 isoforms in the third helix showing conservation of a Ser phosphorylation site (shown in bold). Asterisks indicate identical amino acids. (B) Recombinant 14-3-3 isoforms were incubated with PKA catalytic subunit in the presence of 50 μM sphingosine, dimethyl-sphingosine (DMS) or FTY 720 (FTY) delivered in 0.1% ethanol (EtOH). Phosphorylated 14-3-3s were detected by autoradiography. Gels were coomassie stained to show equal loading of 14-3-3 substrate.
# as §1
# [5] = molecular target: T1, 14-3-3ζ; experiment: 14-3-3 phosphorylation by PKA catalytic subunit (autoradiography); format: biochemical; details: 50 μM lipid delivered in 0.1% ethanol
# Description: 14-3-3ζ (wild-type or S58A mutant) was incubated with the catalytic subunit of PKA in the presence (+) or absence (−) of 50 μM sphingosine (A) or DMS (B) delivered in 0.1% ethanol. Phosphorylated 14-3-3ζ was detected by autoradiography.
# The assay was carried out by incubating 14-3-g (0.5 μg) with catalytic subunit of PKA (0.2 Units) with the indicated concentration of DMS delivered in 0.1% ethanol. Reactions were separated on SDS-PAGE and phosphorylated protein detected by autoradiography. […] (B) 14-3-3ζ was incubated with the catalytic subunit of PKA and 50 μM D-erythro-sphingosine (Sph), D-erythro-trimethyl-sphingosine (TMS), D-erythro-dihydro-sphingosine (DHS), phyto-sphingosine (PSph), D-erythro-sphingosine-1-phosphate (SIP), C2-ceramide (C2-Cer), sphingomyelin (SM), spermine (Sper) or linoleic acid (LA), all delivered in 0.1% ethanol. Phosphorylated 14-3-3ζ was detected by autoradiography.
# as §1
# [6] = molecular target: T1, 14-3-3ζ; experiment: Gel filtration of 14-3-3ζ with DMS and [3H]-sphingosine; format: binding; details: co-elution in fractions 3-14; 25 μM DMS with trace [3H]-sphingosine
# Description: FIG. 4 is a graphical representation depicting that sphingosine binds to 14-3-3 in vitro. 10 μg of recombinant 14-3-3 was incubated for 15 minutes at room temperature in 50 μl of buffer either in the absence (FIG. A, thick line) or presence of [^3H]-sphingosine (0.5 μCi) with 25 μM DMS (thin line). After incubation, the mixtures were separated by gel filtration as described under “examples”. (A) Absorbance at 280 nm was monitored continuously to identify the elution position of 14-3-3 protein. An aliquot of each eluted fraction was analysed for (B) sphingosine-binding to 14-3-3 by measuring [^3H]-sphingosine radioactivity as determined by scintillation counting; and (C) 14-3-3 phosphorylatability by incubation with 0.2 Units of PKA catalytic subunit and [^32P]γ-ATP. Phosphorylated 14-3-3 was detected by autoradiography. The chromatography and assays were repeated twice and similar results obtained.
# Recombinant 14-3-3ζ (10 μg) was pre-incubated with 25 μM […] delivered in 0.1% v/v ethanol and [^3H]-sphingosine, (0.5 μCi) and then chromatographed on a SMART system with a Superdex 200PC 3.2/30 column (Amersham Biosciences, Australia). The system was operated at 40 μl/min using 20 mM Tris-HCl pH 7.5, 150 mM NaCl, 0.1 mM DTT, 10 mM β-mercaptoethanol as running buffer. Fractions (40 μl) were collected for 60 minutes after sample injection. […]
smiles,measurement,setting,value
"CCCCCCCCCCCCC/C=C/[C@@H](O)[C@@H](N)CO [sphingosine, D-erythro-sphingosine]",critical micelle concentration,[1],18 µM
same,phosphorylation of 14-3-3 by PKCδCat,[2],no phosphorylation is observed with PKCδCat unless sphingosine is present
same,sphingosine-dependent phosphorylation of S58A 14-3-3ζ,[3],abolished
same,phosphorylation of 14-3-3 isoforms by PKA catalytic subunit,[4],all isoforms tested with the exception of 14-3-36 were phosphorylatable
same,phosphorylation of 14-3-3ζ on Ser58 by PKA catalytic subunit,[5],not phosphorylated by PKA catalytic subunit unless sphingosine was present; also recorded: allowed phosphorylation
same,binding of [3H]-sphingosine to 14-3-3,[6],directly bound to 14-3-3
